Measurements from PubChem BioAssay (NCI).
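96-well plates; 48 h exposure; 5 concentrations. Endpoints by linear interpolation between flanking doses. Not reached: highest tested concentration assigned. TGI: concentration producing complete growth inhibition.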

How the values were obtained:
Assay in all cases: growth of human tumour cells (NCI), 48 h
SK-MEL-2 melanoma = tested on: SK-MEL-2 melanoma
A498 renal = tested on: A498 renal
UACC-257 melanoma = tested on: UACC-257 melanoma
COLO 205 colon = tested on: COLO 205 colon
A549 NSCLC = tested on: A549 NSCLC
DU-145 prostate = tested on: DU-145 prostate
SK-MEL-5 melanoma = tested on: SK-MEL-5 melanoma
TK-10 renal = tested on: TK-10 renal
MOLT-4 leukemia = tested on: MOLT-4 leukemia
ACHN renal = tested on: ACHN renal
HT29 colon = tested on: HT29 colon
HCT-15 colon = tested on: HCT-15 colon
SNB-19 CNS = tested on: SNB-19 CNS
MALME-3M melanoma = tested on: MALME-3M melanoma
HOP-62 NSCLC = tested on: HOP-62 NSCLC
K-562 leukemia = tested on: K-562 leukemia
EKVX NSCLC = tested on: EKVX NSCLC
NCI/ADR-RES ovarian = tested on: NCI/ADR-RES ovarian
SN12C renal = tested on: SN12C renal
HL-60(TB) leukemia = tested on: HL-60(TB) leukemia
SNB-75 CNS = tested on: SNB-75 CNS
OVCAR-4 ovarian = tested on: OVCAR-4 ovarian
KM12 colon = tested on: KM12 colon
MDA-MB-231 breast = tested on: MDA-MB-231 breast
OVCAR-3 ovarian = tested on: OVCAR-3 ovarian
HCC-2998 colon = tested on: HCC-2998 colon
HCT-116 colon = tested on: HCT-116 colon
U251 CNS = tested on: U251 CNS
OVCAR-5 ovarian = tested on: OVCAR-5 ovarian
SF-268 CNS = tested on: SF-268 CNS
CCRF-CEM leukemia = tested on: CCRF-CEM leukemia
CAKI-1 renal = tested on: CAKI-1 renal
SF-295 CNS = tested on: SF-295 CNS
RXF 393 renal = tested on: RXF 393 renal
BT-549 breast = tested on: BT-549 breast
SW-620 colon = tested on: SW-620 colon
SK-OV-3 ovarian = tested on: SK-OV-3 ovarian
SK-MEL-28 melanoma = tested on: SK-MEL-28 melanoma
RPMI-8226 leukemia = tested on: RPMI-8226 leukemia
M14 melanoma = tested on: M14 melanoma
UO-31 renal = tested on: UO-31 renal
SR leukemia = tested on: SR leukemia
HS 578T breast = tested on: HS 578T breast
NCI-H226 lung = tested on: NCI-H226 lung
786-0 renal = tested on: 786-0 renal
NCI-H23 lung = tested on: NCI-H23 lung
MDA-N = tested on: MDA-N
MCF7 breast = tested on: MCF7 breast
NCI-H460 lung = tested on: NCI-H460 lung
IGROV1 ovarian = tested on: IGROV1 ovarian
T-47D breast = tested on: T-47D breast
UACC-62 melanoma = tested on: UACC-62 melanoma
LOX IMVI melanoma = tested on: LOX IMVI melanoma
SF-539 CNS = tested on: SF-539 CNS
PC-3 prostate = tested on: PC-3 prostate
NCI-H522 lung = tested on: NCI-H522 lung
OVCAR-8 ovarian = tested on: OVCAR-8 ovarian
MDA-MB-435 = tested on: MDA-MB-435
HOP-92 NSCLC = tested on: HOP-92 NSCLC

CCOC(=O)c1c(NS(=O)(=O)c2ccc(Br)cc2)sc2c1CCCC2
TGI (SK-MEL-2 melanoma): 13.5 µM
TGI (A498 renal): 42.2 µM
TGI (UACC-257 melanoma): 47.5 µM
TGI (COLO 205 colon): 32.1 µM
TGI (A549 NSCLC): 26.5 µM
TGI (DU-145 prostate): > 58 µM
TGI (SK-MEL-5 melanoma): 18.2 µM
TGI (TK-10 renal): 31.9 µM
TGI (MOLT-4 leukemia): 12.3 µM
TGI (ACHN renal): 14.6 µM
TGI (HT29 colon): 10.1 µM
TGI (HCT-15 colon): 19 µM
TGI (SNB-19 CNS): 20.6 µM
TGI (MALME-3M melanoma): 27.9 µM
TGI (HOP-62 NSCLC): 14.1 µM
TGI (K-562 leukemia): > 100 µM
TGI (EKVX NSCLC): 11 µM
TGI (NCI/ADR-RES ovarian): 3.72 µM
TGI (SN12C renal): 12.1 µM
TGI (HL-60(TB) leukemia): > 100 µM
TGI (SNB-75 CNS): 12.4 µM
TGI (OVCAR-4 ovarian): > 100 µM
TGI (KM12 colon): 18.2 µM
TGI (MDA-MB-231 breast): 16.1 µM
TGI (OVCAR-3 ovarian): 9.9 µM
TGI (HCC-2998 colon): 32.6 µM
TGI (HCT-116 colon): 21.1 µM
TGI (U251 CNS): 25.4 µM
TGI (OVCAR-5 ovarian): 18.3 µM
TGI (SF-268 CNS): 10.9 µM
TGI (CCRF-CEM leukemia): > 100 µM
TGI (CAKI-1 renal): 33.7 µM
TGI (SF-295 CNS): 8.39 µM
TGI (RXF 393 renal): 6.98 µM
TGI (BT-549 breast): 19.4 µM
TGI (SW-620 colon): 30.6 µM
TGI (SK-OV-3 ovarian): 50 µM
TGI (SK-MEL-28 melanoma): 32.6 µM
TGI (RPMI-8226 leukemia): 30.5 µM
TGI (M14 melanoma): 9.92 µM
TGI (UO-31 renal): 15.7 µM
TGI (SR leukemia): 74.7 µM
TGI (HS 578T breast): 35.5 µM
TGI (NCI-H226 lung): 9.91 µM
TGI (786-0 renal): 29.4 µM
TGI (NCI-H23 lung): 18.7 µM
TGI (MDA-N): 52.9 µM
TGI (MCF7 breast): > 62.9 µM
TGI (NCI-H460 lung): 13.9 µM
TGI (IGROV1 ovarian): 8.79 µM
TGI (T-47D breast): 14.5 µM
TGI (UACC-62 melanoma): 17.7 µM
TGI (LOX IMVI melanoma): 27.3 µM
TGI (SF-539 CNS): 19.8 µM
TGI (PC-3 prostate): 11.5 µM
TGI (NCI-H522 lung): 16.2 µM
TGI (OVCAR-8 ovarian): 15.3 µM
TGI (MDA-MB-435): 49.1 µM

CC(=O)O[C@@]12[C@@H]3O[C@@]4(O)C[C@]5(C)[C@H]6C[C@@](C(C)C)(O[C@H]5c5ccoc5)O[C@H]1[C@]6(C4)O[C@]2(O)C(C)=CC3(C)C
TGI (SK-MEL-2 melanoma): > 100 µM
TGI (UACC-257 melanoma): > 100 µM
TGI (COLO 205 colon): > 100 µM
TGI (A549 NSCLC): > 100 µM
TGI (DU-145 prostate): > 100 µM
TGI (SK-MEL-5 melanoma): > 100 µM
TGI (TK-10 renal): > 100 µM
TGI (MOLT-4 leukemia): > 100 µM
TGI (HOP-92 NSCLC): > 100 µM
TGI (ACHN renal): > 100 µM
TGI (HT29 colon): > 100 µM
TGI (HCT-15 colon): > 100 µM
TGI (SNB-19 CNS): > 100 µM
TGI (MALME-3M melanoma): > 100 µM
TGI (HOP-62 NSCLC): > 100 µM
TGI (K-562 leukemia): > 100 µM
TGI (EKVX NSCLC): > 100 µM
TGI (NCI/ADR-RES ovarian): > 100 µM
TGI (SN12C renal): > 100 µM
TGI (HL-60(TB) leukemia): > 100 µM
TGI (SNB-75 CNS): > 100 µM
TGI (OVCAR-4 ovarian): > 100 µM
TGI (KM12 colon): > 100 µM
TGI (MDA-MB-231 breast): > 100 µM
TGI (OVCAR-3 ovarian): > 100 µM
TGI (HCC-2998 colon): > 100 µM
TGI (HCT-116 colon): > 100 µM
TGI (U251 CNS): > 100 µM
TGI (OVCAR-5 ovarian): > 100 µM
TGI (SF-268 CNS): > 100 µM
TGI (CCRF-CEM leukemia): > 100 µM
TGI (CAKI-1 renal): > 100 µM
TGI (SF-295 CNS): > 100 µM
TGI (RXF 393 renal): > 100 µM
TGI (BT-549 breast): > 100 µM
TGI (SW-620 colon): > 100 µM
TGI (SK-OV-3 ovarian): > 100 µM
TGI (SK-MEL-28 melanoma): > 100 µM
TGI (RPMI-8226 leukemia): > 100 µM
TGI (M14 melanoma): > 100 µM
TGI (UO-31 renal): > 100 µM
TGI (SR leukemia): > 100 µM
TGI (HS 578T breast): > 100 µM
TGI (NCI-H226 lung): > 100 µM
TGI (786-0 renal): > 100 µM
TGI (NCI-H23 lung): > 100 µM
TGI (MDA-N): > 100 µM
TGI (MCF7 breast): > 100 µM
TGI (IGROV1 ovarian): > 100 µM
TGI (T-47D breast): > 100 µM
TGI (UACC-62 melanoma): > 100 µM
TGI (LOX IMVI melanoma): > 100 µM
TGI (SF-539 CNS): > 100 µM
TGI (PC-3 prostate): > 100 µM
TGI (NCI-H522 lung): > 100 µM
TGI (OVCAR-8 ovarian): > 100 µM
TGI (MDA-MB-435): > 100 µM

Cc1cc(C)nc(NC(=S)Nc2cccc(Cl)c2)c1
TGI (SK-MEL-2 melanoma): > 100 µM
TGI (A498 renal): > 100 µM
TGI (UACC-257 melanoma): > 100 µM
TGI (COLO 205 colon): > 100 µM
TGI (A549 NSCLC): > 100 µM
TGI (DU-145 prostate): > 100 µM
TGI (TK-10 renal): > 100 µM
TGI (MOLT-4 leukemia): > 100 µM
TGI (ACHN renal): > 100 µM
TGI (HT29 colon): > 100 µM
TGI (HCT-15 colon): > 100 µM
TGI (SNB-19 CNS): > 100 µM
TGI (MALME-3M melanoma): > 100 µM
TGI (HOP-62 NSCLC): > 100 µM
TGI (K-562 leukemia): > 100 µM
TGI (EKVX NSCLC): > 100 µM
TGI (NCI/ADR-RES ovarian): > 100 µM
TGI (SN12C renal): > 100 µM
TGI (HL-60(TB) leukemia): > 100 µM
TGI (SNB-75 CNS): > 100 µM
TGI (OVCAR-4 ovarian): > 100 µM
TGI (KM12 colon): > 100 µM
TGI (MDA-MB-231 breast): > 100 µM
TGI (OVCAR-3 ovarian): > 100 µM
TGI (HCC-2998 colon): > 100 µM
TGI (HCT-116 colon): > 100 µM
TGI (U251 CNS): > 100 µM
TGI (OVCAR-5 ovarian): > 100 µM
TGI (SF-268 CNS): > 100 µM
TGI (CCRF-CEM leukemia): > 100 µM
TGI (CAKI-1 renal): > 86.5 µM
TGI (SF-295 CNS): > 100 µM
TGI (RXF 393 renal): > 100 µM
TGI (BT-549 breast): > 100 µM
TGI (SW-620 colon): > 100 µM
TGI (SK-OV-3 ovarian): > 100 µM
TGI (SK-MEL-28 melanoma): > 100 µM
TGI (RPMI-8226 leukemia): > 100 µM
TGI (M14 melanoma): > 100 µM
TGI (UO-31 renal): > 100 µM
TGI (SR leukemia): > 100 µM
TGI (HS 578T breast): > 100 µM
TGI (NCI-H226 lung): > 100 µM
TGI (786-0 renal): > 100 µM
TGI (NCI-H23 lung): > 100 µM
TGI (MDA-N): > 100 µM
TGI (MCF7 breast): > 58.3 µM
TGI (NCI-H460 lung): > 100 µM
TGI (IGROV1 ovarian): > 100 µM
TGI (T-47D breast): > 100 µM
TGI (UACC-62 melanoma): > 100 µM
TGI (LOX IMVI melanoma): > 100 µM
TGI (SF-539 CNS): > 100 µM
TGI (PC-3 prostate): > 100 µM
TGI (OVCAR-8 ovarian): > 100 µM
TGI (MDA-MB-435): > 100 µM
